US8163755B2, “Hexahydrooxazinopterine compounds” (Takeda Pharmaceutical Company Limited, priority 2009, dated 2012)
Structures can show the parent of a compound that is named as a salt.

Molecular target: T1, human mTOR (Homo sapiens, UniProt P42345)
T1 construct: purchased Invitrogen
Test: Inhibition of mTOR (Example A, LanthaScreen TR-FRET, GFP-4E-BP1 substrate)
Assay type: biochemical
Conditions: inhibition of human mTOR in the assay of Example A
Description: Example A Inhibition of mTOR
Purified mTOR are purchased from Invitrogen. mTOR activity was determined using Invitrogen's LanthaScreen system. The inhibitory properties of compounds relative to mTOR may be determined using a black 384-well-plate format in the following buffer 50 mM Hepes, 10 mM NaCl, 10 mM MgCl2, 0.2 mM EDTA, 0.01% Brij35, 2 mM DTT at pH7.3. The test compound is prepared in DMSO using 2 fold serial dilutions for 11 data points which are added to the buffer so that each dilution contains 3% DMSO.
An Assay for mTOR Inhibition is as Follows:
Combine in each well 2 μl of 1.2 μM GFP-4E-BP1 (Invitrogen) and 150 μM ATP (in buffer), 2 μl of diluted test compound (3% DMSO in buffer), and 2 μl of 6 nM mTor in buffer. The reaction mixture is then incubated at room temperature for 30 min, and quenched by adding 40 mM ETDA with 4 nM Tb-anti-p4E-BP1 [pThr46] antibody in TR-FRET dilution buffer (Invitrogen). The plate is kept at room temperature for 1 hour and then read using PheraStar (BMG labtech) LanthaScreen mode.
pIC50 values, the negative of the log of the IC50, are calculated by non-linear curve fitting of the compound concentrations and percent of inhibition to the standard pIC50 equation.

For `CNC(=O)Nc1ccc(-c2ncc3c(n2)N2CCOCC2(C)C(=O)N3CC2CC2)cc1` (centres unmarked) [Example 1, 1-(4-(5-(cyclopropylmethyl)-6a-methyl-6-oxo-5,6,6a,7,9,10-hexahydro-[1,4]oxazino[3,4-h]pteridin-2-yl)phenyl)-3-methylurea], the IC50 was less than 31.6 nM.
`CNC(=O)Nc1ccc(-c2ncc3c(n2)N2CCOC[C@]2(C)C(=O)N3CC2CC2)cc1` [Example 3, (R)-1-(4-(5-(cyclopropylmethyl)-6a-methyl-6-oxo-5,6,6a,7,9,10-hexahydro-[1,4]oxazino[3,4-h]pteridin-2-yl)phenyl)-3-methylurea] gave an IC50 of less than 31.6 nM.
With `CNC(=O)Nc1ccc(-c2ncc3c(n2)N2CCOC[C@@]2(C)C(=O)N3CC2CC2)cc1` [Example 4, (S)-1-(4-(5-(cyclopropylmethyl)-6a-methyl-6-oxo-5,6,6a,7,9,10-hexahydro-[1,4]oxazino[3,4-h]pteridin-2-yl)phenyl)-3-methylurea] the IC50 was 31.6 to 1000 nM.
`CCNC(=O)Nc1ccc(-c2ncc3c(n2)N2CCOCC2(C)C(=O)N3CC2CC2)cc1` (centres unmarked) [Example 5, 1-(4-(5-(cyclopropylmethyl)-6a-methyl-6-oxo-5,6,6a,7,9,10-hexahydro-[1,4]oxazino[3,4-h]pteridin-2-yl)phenyl)-3-ethylurea, TFA salt] showed an IC50 of less than 31.6 nM.
Compound `CC12COCCN1c1nc(-c3ccc(NC(=O)NC4CC4)cc3)ncc1N(CC1CC1)C2=O` (centres unmarked) [Example 6, 1-cyclopropyl-3-(4-(5-(cyclopropylmethyl)-6a-methyl-6-oxo-5,6,6a,7,9,10-hexahydro-[1,4]oxazino[3,4-h]pteridin-2-yl)phenyl)urea, TFA salt] has an IC50 of 31.6 to 1000 nM.
Compound `CCNC(=O)Nc1ccc(-c2ncc3c(n2)N2CCOC[C@@]2(C)C(=O)N3CC2CC2)cc1` [Example 7, (S)-1-(4-(5-(cyclopropylmethyl)-6a-methyl-6-oxo-5,6,6a,7,9,10-hexahydro-[1,4]oxazino[3,4-h]pteridin-2-yl)phenyl)-3-ethylurea] has an IC50 of less than 31.6 nM.
`C[C@@]12COCCN1c1nc(-c3ccc(NC(=O)NC4CC4)cc3)ncc1N(CC1CC1)C2=O` [Example 9, (S)-1-cyclopropyl-3-(4-(5-(cyclopropylmethyl)-6a-methyl-6-oxo-5,6,6a,7,9,10-hexahydro-[1,4]oxazino[3,4-h]pteridin-2-yl)phenyl)urea] showed an IC50 of less than 31.6 nM.
`CNC(=O)Nc1ccc(-c2ncc3c(n2)N2CCOCC2(C)C(=O)N3Cc2ccn(C)n2)cc1` (centres unmarked) [Example 11, 1-methyl-3-(4-(6a-methyl-5-((1-methyl-1H-pyrazol-3-yl)methyl)-6-oxo-5,6,6a,7,9,10-hexahydro-[1,4]oxazino[3,4-h]pteridin-2-yl)phenyl)urea] gave an IC50 of 31.6 to 1000 nM.
In the case of `CNC(=O)Nc1ccc(-c2nc(N3CCOCC3)c3c(n2)N2CCOCC2(C)C(=O)N3C)cc1` (centres unmarked) [Example 14, 1-(4-(5,6a-dimethyl-4-morpholino-6-oxo-5,6,6a,7,9,10-hexahydro-[1,4]oxazino[3,4-h]pteridin-2-yl)phenyl)-3-methylurea], the IC50 is reported as 31.6 to 1000 nM.
`CNC(=O)Nc1ccc(-c2ncc3c(n2)N2CCOCC2(C)C(=O)N3C(C)C)cc1` (centres unmarked) [Example 15, 1-(4-(5-isopropyl-6a-methyl-6-oxo-5,6,6a,7,9,10-hexahydro-[1,4]oxazino[3,4-h]pteridin-2-yl)phenyl)-3-methylurea] was tested, and the IC50 was less than 31.6 nM.
`CNC(=O)Nc1ccc(-c2ncc3c(n2)N2CCOCC2(C)C(=O)N3CC2CCC2)cc1` (centres unmarked) [Example 16, 1-(4-(5-(cyclobutylmethyl)-6a-methyl-6-oxo-5,6,6a,7,9,10-hexahydro-[1,4]oxazino[3,4-h]pteridin-2-yl)phenyl)-3-methylurea] gave an IC50 of less than 31.6 nM.
`CNC(=O)Nc1ccc(-c2ncc3c(n2)N2CCOCC2(C)C(=O)N3C2CC2)cc1` (centres unmarked) [Example 17, 1-(4-(5-cyclopropyl-6a-methyl-6-oxo-5,6,6a,7,9,10-hexahydro-[1,4]oxazino[3,4-h]pteridin-2-yl)phenyl)-3-methylurea] was tested, and the IC50 was 31.6 to 1000 nM.
For `CNC(=O)Nc1ccc(-c2ncc3c(n2)N2CCO[C@@H](C)[C@@]2(C)C(=O)N3CC2CC2)cc1` [Example 18, 1-(4-((6aS,7S)-5-(cyclopropylmethyl)-6a,7-dimethyl-6-oxo-5,6,6a,7,9,10-hexahydro-[1,4]oxazino[3,4-h]pteridin-2-yl)phenyl)-3-methylurea], the IC50 was less than 31.6 nM.
`CNC(=O)Nc1ccc(-c2ncc3c(n2)N2C[C@@H](C)OC[C@]2(C)C(=O)N3CC2CC2)cc1` [Example 19, 1-(4-((6aR,9R)-5-(cyclopropylmethyl)-6a,9-dimethyl-6-oxo-5,6,6a,7,9,10-hexahydro-[1,4]oxazino[3,4-h]pteridin-2-yl)phenyl)-3-methylurea] gave an IC50 of 31.6 to 1000 nM.
Compound `CNC(=O)Nc1ccc(-c2ncc3c(n2)N2CCOCC2(C)C(=O)N3C(C)(C)C(=O)O)cc1` (centres unmarked) [Example 20, 2-methyl-2-(6a-methyl-2-(4-(3-methylureido)phenyl)-6-oxo-6a,7,9,10-tetrahydro-[1,4]oxazino[3,4-h]pteridin-5(6H)-yl)propanoic acid TFA salt] has an IC50 greater than 1000 nM.
For `CNC(=O)Nc1ccc(-c2ncc3c(n2)N2CCOCC2(C)C(=O)N3C[C@H](O)CO)cc1` (stereo partly drawn) [Example 22, 1-(4-(5-((S)-2,3-dihydroxypropyl)-6a-methyl-6-oxo-5,6,6a,7,9,10-hexahydro-[1,4]oxazino[3,4-h]pteridin-2-yl)phenyl)-3-methylurea], the IC50 was 31.6 to 1000 nM.
With `CNC(=O)Nc1ccc(-c2ncc3c(n2)N2CCOC[C@@]2(C)C(=O)N3C[C@H](O)CO)cc1` [Example 23] the IC50 was 31.6 to 1000 nM.
With `CNC(=O)Nc1ccc(-c2ncc3c(n2)N2CCOC[C@]2(C)C(=O)N3C[C@H](O)CO)cc1` [Example 24] the IC50 was greater than 1000 nM.
For `CNC(=O)Nc1ccc(-c2ncc3c(n2)N2CCOC[C@@]2(C)C(=O)N3C2CCOCC2)cc1` [Example 26, (S)-1-methyl-3-(4-(6a-methyl-6-oxo-5-(tetrahydro-2H-pyran-4-yl)-5,6,6a,7,9,10-hexahydro-[1,4]oxazino[3,4-h]pteridin-2-yl)phenyl)urea], the IC50 was less than 31.6 nM.
`CNC(=O)Nc1ccc(-c2ncc3c(n2)N2CCOCC2(C)C(=O)N3CC(C)(C)C)cc1` (centres unmarked) [Example 28, 1-methyl-3-(4-(6a-methyl-5-neopentyl-6-oxo-5,6,6a,7,9,10-hexahydro-[1,4]oxazino[3,4-h]pteridin-2-yl)phenyl)urea] was tested, and the IC50 was less than 31.6 nM.
For `CC12COCCN1c1nc(-c3ccc(NC(=O)NC4CC4)cc3)ncc1N(C1CCOC1)C2=O` (centres unmarked) [Example 30, 1-cyclopropyl-3-(4-(6a-methyl-6-oxo-5-(tetrahydrofuran-3-yl)-5,6,6a,7,9,10-hexahydro-[1,4]oxazino[3,4-h]pteridin-2-yl)phenyl)urea], the IC50 was less than 31.6 nM.
`CNC(=O)Nc1ccc(-c2ncc3c(n2)N2CCOCC2(C)C(=O)N3CCCOC)cc1` (centres unmarked) [Example 35, 1-(4-[5-(3-methoxypropyl)-6a-methyl-6-oxo-5,6,6a,7,9,10-hexahydro[1,4]oxazino[3,4-h]pteridin-2-yl]phenyl)-3-methylurea] gave an IC50 of less than 31.6 nM.
Work on `CNC(=O)Nc1ccc(-c2ncc3c(n2)N2CCOC[C@@]2(C)C(=O)N3CCCOC)cc1` [Example 36, (S)-1-(4-[5-(3-methoxypropyl)-6a-methyl-6-oxo-5,6,6a,7,9,10-hexahydro[1,4]oxazino[3,4-h]pteridin-2-yl]phenyl)-3-methylurea] yielded an IC50 of less than 31.6 nM.
`COCCCN1C(=O)[C@]2(C)COCCN2c2nc(-c3ccc(NC(=O)NC4CC4)cc3)ncc21` [Example 41, (S)-1-cyclopropyl-3-(4-(5-(3-methoxypropyl)-6a-methyl-6-oxo-5,6,6a,7,9,10-hexahydro-[1,4]oxazino[3,4-h]pteridin-2-yl)phenyl)urea] showed an IC50 of less than 31.6 nM.
Compound `CC12COCCN1c1nc(-c3ccc(NC(=O)NC4CC4)cc3)ncc1N(C1CCS(=O)(=O)CC1)C2=O` (centres unmarked) [Example 45, 1-cyclopropyl-3-(4-[5-(1,1-dioxidotetrahydro-2H-thiopyran-4-yl)-6a-methyl-6-oxo-5,6,6a,7,9,10-hexahydro[1,4]oxazino[3,4-h]pteridin-2-yl]phenyl)urea] has an IC50 of 31.6 to 1000 nM.
For `CC12COCCN1c1nc(-c3ccc(NC(=O)NC4CC4)cc3)ncc1N(CCCS(C)(=O)=O)C2=O` (centres unmarked) [Example 46, 1-cyclopropyl-3-(4-(6a-methyl-5-(3-(methylsulfonyl)propyl)-6-oxo-5,6,6a,7,9,10-hexahydro-[1,4]oxazino[3,4-h]pteridin-2-yl)phenyl)urea], the IC50 was less than 31.6 nM.
For `CC(F)(F)CN1C(=O)C2(C)COCCN2c2nc(-c3ccc(NC(=O)NC4CC4)cc3)ncc21` (centres unmarked) [Example 47, 1-cyclopropyl-3-(4-(5-(2,2-difluoropropyl)-6a-methyl-6-oxo-5,6,6a,7,9,10-hexahydro-[1,4]oxazino[3,4-h]pteridin-2-yl)phenyl)urea], the IC50 was less than 31.6 nM.
`CC(F)(F)CN1C(=O)[C@]2(C)COCCN2c2nc(-c3ccc(NC(=O)NC4CC4)cc3)ncc21` [Example 49, (S)-1-cyclopropyl-3-(4-(5-(2,2-difluoropropyl)-6a-methyl-6-oxo-5,6,6a,7,9,10-hexahydro-[1,4]oxazino[3,4-h]pteridin-2-yl)phenyl)urea] gave an IC50 of less than 31.6 nM.
For `C[C@]12COCCN1c1nc(-c3ccc(NC(=O)NC4CC4)cc3)ncc1N(CC(F)(F)F)C2=O` [Example 53, (R)-1-cyclopropyl-3-(4-(6a-methyl-6-oxo-5-(2,2,2-trifluoroethyl)-5,6,6a,7,9,10-hexahydro-[1,4]oxazino[3,4-h]pteridin-2-yl)phenyl)urea], the IC50 was less than 31.6 nM.
